Test results as given in ChEMBL document CHEMBL5532736, “Novel Approaches for Upregulation of Tumor Suppressor Proteins: Pioneering Strategies and Integrative Potentials” (ACS Med Chem Lett, 2024).

Legend:
[1] = Cytotoxicity against human EU-1 cells assessed as inhibition of cell viability incubated for 24 to 72 hrs by CCK8 assay; assay type: functional, cell-based
[2] = target: E3 ubiquitin-protein ligase Mdm2 (Homo sapiens) (UniProt Q00987); test: Induction of MDM2 degradation in human EU-1 cells incubated for 6 hrs by Western blot analysis; assay type: cell-based; conditions: dose <= 2.0 µM
Chain of E3 ubiquitin-protein ligase Mdm2 (Homo sapiens) (Q00987 whole entry, looked up): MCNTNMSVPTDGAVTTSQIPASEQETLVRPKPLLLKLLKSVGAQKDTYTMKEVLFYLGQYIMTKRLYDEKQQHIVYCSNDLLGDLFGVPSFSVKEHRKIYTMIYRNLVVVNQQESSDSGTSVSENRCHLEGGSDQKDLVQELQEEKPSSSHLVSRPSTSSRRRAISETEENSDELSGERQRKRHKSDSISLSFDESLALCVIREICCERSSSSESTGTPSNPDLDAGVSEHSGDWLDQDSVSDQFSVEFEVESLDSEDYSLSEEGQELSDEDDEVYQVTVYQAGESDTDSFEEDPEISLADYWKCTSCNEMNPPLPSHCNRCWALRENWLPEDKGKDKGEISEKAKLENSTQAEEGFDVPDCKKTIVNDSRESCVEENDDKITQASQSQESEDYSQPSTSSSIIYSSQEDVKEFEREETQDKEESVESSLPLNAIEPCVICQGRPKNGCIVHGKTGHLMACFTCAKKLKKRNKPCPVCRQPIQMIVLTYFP

[3] = target: E3 ubiquitin-protein ligase Mdm2 (Homo sapiens) (UniProt Q00987); test: Induction of MDM2 degradation in human EU-1 cells assessed as increase in p53 level at 0.8 uM by Western blot analysis; assay type: cell-based; conditions: time <= 24.0 hrs, TDE = time-dependent effect
[4] = target: E3 ubiquitin-protein ligase Mdm2 (Homo sapiens) (UniProt Q00987); test: Induction of MDM2 degradation in human EU-1 cells assessed as increase in p53 level incubated for 6 hrs by Western blot analysis; assay type: cell-based; conditions: dose <= 2.0 µM
[5] = target: E3 ubiquitin-protein ligase Mdm2 (Homo sapiens) (UniProt Q00987); test: Induction of MDM2 degradation in human EU-1 cells at 0.8 uM by Western blot analysis; assay type: cell-based; conditions: time <= 24.0 hrs, TDE = time-dependent effect

| SMILES | IC50 [1] | further results |
| --- | --- | --- |
| C=CC(=O)Nc1cc(OCCCC(C)=O)c2c(c1)C(=O)c1cccc(OCCCC(C)=O)c1C2=O | 6210 nM | – |
| C#CC(=O)Nc1cc(OCCCC(C)=O)c2c(c1)C(=O)c1cccc(OCCCC(C)=O)c1C2=O | 190 nM | – |
| CC(=O)CCCOc1cc(NC(=O)CCl)cc2c1C(=O)c1c(O)cccc1C2=O | 840 nM | – |
| C=CS(=O)(=O)Nc1cc(OCCCC(C)=O)c2c(c1)C(=O)c1cccc(OCCCC(C)=O)c1C2=O | 3450 nM | – |
| O=C(CCl)Nc1cc(OCCO)c2c(c1)C(=O)c1cccc(OCCO)c1C2=O | 740 nM | – |
| CC(=O)CCCOc1cccc2c1C(=O)c1c(OCCCC(C)=O)cc(NC(=O)CCl)cc1C2=O | 430 nM | Activity [2]: Dose-Dependent Effect; Activity [3]: Tde; Activity [4]: Dose-Dependent Effect; Activity [5]: Tde |
| CC(=O)CCCOc1cccc2c1C(=O)c1c(OCCCC(C)=O)cc(NC(C)=O)cc1C2=O | > 100000 nM | – |
| CC(=O)CCOc1cccc2c1C(=O)c1c(OCCC(C)=O)cc(NC(=O)CCl)cc1C2=O | 450 nM | – |
| CC(=O)CCCCOc1cccc2c1C(=O)c1c(OCCCCC(C)=O)cc(NC(=O)CCl)cc1C2=O | 790 nM | – |
